≈ marks a conversion by molar mass, not a printed value.
Test system: ΔtreS (TreS-deficient M. tuberculosis)
Type: cell-based, Mycobacterium tuberculosis

| Structure (SMILES) | IC95 ΔtreS [µg/mL] |
| --- | --- |
| NNC(=O)c1ccncc1 [INH, isoniazid] | 0.12 (≈ 0.875 µM) |
| COc1nc2ccc(Br)cc2cc1[C@@H](c1ccccc1)[C@@](O)(CCN(C)C)c1cccc2ccccc12 [BDQ, bedaquiline] | 0.21 (≈ 0.378 µM) |

Reference: patent US20250205260A1, “ADJUNCTIVE TREATMENT OF MYCOBACTERIAL DISEASES” (UNIVERSITY OF SOUTHERN CALIFORNIA, priority 2022, published 2025)
